Laboratory results reported in patent US6737383B1, “Herbicidal oxadiazolidines” (priority 1999, dated 2004).

What was measured:
sugar beet = experiment: Test B pre/postemergence sugar beet; assay type: in vivo, Beta vulgaris
Method in brief: (§1)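 Herbicidal effect was estimated by eye on a ten-point control scale after plants spent twelve to sixteen days in a greenhouse following soil or foliar treatment. Foliar sprays targeted plants at one to four leaves; all doses were formulated in a non-phytotoxic solvent with surfactant.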

soybean = experiment: Test B pre/postemergence soybean; assay type: in vivo, Glycine max
Method in brief: as §1

rape = experiment: Test B pre/postemergence rape; assay type: in vivo, Brassica napus
Method in brief: as §1

morningglory = experiment: Test B pre/postemergence morningglory; assay type: in vivo, Ipomoea hederacea
Method in brief: as §1

velvetleaf = experiment: Test B pre/postemergence velvetleaf; assay type: in vivo, Abutilon theophrasti
Method in brief: as §1

wild oat = experiment: Test B pre/postemergence wild oat; assay type: in vivo, Avena fatua
Method in brief: as §1

blackgrass = experiment: Test B pre/postemergence blackgrass; assay type: in vivo, Alopecurus myosuroides
Method in brief: as §1

bamyardgrass = experiment: Test B flood test barnyardgrass; assay type: in vivo, Echinochloa crus-galli
Method in brief: (§2)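 Plants were grown to the 2-leaf stage before treatment with test chemical, then held in a greenhouse for twelve to sixteen days. Injury was visually rated against untreated controls on a 0–10 scale, where 0 is no effect and 10 is complete control.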

corn = experiment: Test B pre/postemergence corn; assay type: in vivo, Zea mays
Method in brief: as §1

surinam grass = experiment: Test B pre/postemergence surinam grass; assay type: in vivo, Brachiaria decumbens
Method in brief: as §1

rice = experiment: Test B flood test rice; assay type: in vivo, Oryza sativa
Protocol: At the same time, these crop and weed species were also treated with postemergence applications of test chemicals formulated in the same manner. Plants ranged in height from 2 to 18 cm (1- to 4-leaf stage) for postemergence treatments. Plant species in the flood test consisted of rice (Oryza sativa), smallflower flatsedge (Cyperus difformis), duck salad (Heteranthera limosa) and bamyardgrass (Echinochloa crus-galli) grown to the 2-leaf stage for testing. Treated plants and controls were maintained in a greenhouse for twelve to sixteen days, after which all species were compared to controls and visually evaluated. Plant response ratings, summarized in Table B, are based on a scale of 0 to 10 where 0 is no effect and 10 is complete control. A dash (−) response means no test result.

giant foxtail = experiment: Test B pre/postemergence giant foxtail; assay type: in vivo, Setaria faberii
Method in brief: as §1

cocklebur = experiment: Test B pre/postemergence cocklebur; assay type: in vivo, Xanthium strumarium
Method in brief: as §1

purple nutsedge = experiment: Test B pre/postemergence purple nutsedge; assay type: in vivo, Cyperus rotundus
Method in brief: as §1

pigweed = experiment: Test B pre/postemergence pigweed; assay type: in vivo, Amaranthus retroflexus
Method in brief: as §1

duck salad = experiment: Test B flood test duck salad; assay type: in vivo, Heteranthera limosa
Method in brief: as §2

smallflower flatsedge = experiment: Test B flood test smallflower flatsedge; assay type: in vivo, Cyperus difformis
Method in brief: as §2

wheat = experiment: Test B pre/postemergence wheat; assay type: in vivo, Triticum aestivum
Method in brief: as §1

crabgrass = experiment: Test B pre/postemergence crabgrass; assay type: in vivo, Digitaria sanguinalis
Method in brief: as §1

[1] = Postemergence, Rate 250 g/ha, scale 0 to 10, 0 is no effect, 10 is complete control
[2] = Postemergence, Rate 500 g/ha, scale of 0 to 10 where 0 is no effect and 10 is complete control
[3] = Preemergence, Rate 62 g/ha, scale 0 to 10 (0 no effect, 10 complete control)
[4] = Preemergence, Rate 125 g/ha, scale of 0 to 10 where 0 is no effect and 10 is complete control
[5] = Preemergence, Rate 250 g/ha, scale 0 to 10, 0 is no effect, 10 is complete control
[6] = Preemergence, Rate 500 g/ha, scale 0 to 10, 0 is no effect, 10 is complete control
[7] = Rate 125 g/ha, Postemergence, scale 0 to 10, 0 is no effect, 10 is complete control
[8] = Preemergence, Rate 250 g/ha, scale of 0 to 10 where 0 is no effect and 10 is complete control
[9] = Rate 62 g/ha, Postemergence, scale of 0 to 10 where 0 is no effect and 10 is complete control
[10] = Postemergence section (flood test species), Rate 500 g/ha, scale of 0 to 10 where 0 is no effect and 10 is complete control
[11] = Rate 62 g/ha, Postemergence (flood test species), scale of 0 to 10 where 0 is no effect and 10 is complete control
[12] = Rate 125 g/ha, Postemergence section (flood test species), scale 0 to 10, 0 is no effect, 10 is complete control
[13] = flood test species, listed under Postemergence, Rate 250 g/ha, scale 0 to 10, 0 is no effect, 10 is complete control
[14] = Pre-emergence, Rate 62 g/ha, scale 0 to 10, 0 is no effect, 10 is complete control
[15] = Rate 125 g/ha, Pre-emergence section (flood test species), scale 0 to 10, 0 no effect, 10 complete control
[16] = Rate 500 g/ha, Pre-emergence section of Table B, 0 to 10 scale (0 no effect, 10 complete control)

CC(C)N(C(=O)n1oc(=O)n(CCl)c1=O)c1ccccc1 [Compound 423]
Plant response rating, Sugarbeets (sugar beet; [1]): 0 | Sugarbeets plant response rating (sugar beet; [2]): 0 | Plant response rating, Sugarbeets (sugar beet; [3]): 0 | Plant response rating, Sugarbeets (sugar beet; [4]): 0 | Sugarbeets plant response rating (sugar beet; [5]): 0 | Sugarbeets plant response rating (sugar beet; [6]): 0 | Sugarbeets plant response rating (sugar beet; [7]): 0 | Plant response rating, Soybean (soybean; [1]): 2 | Soybean plant response rating (soybean; [2]): 2 | Plant response rating, Soybean (soybean; [3]): 0 | Plant response rating, Soybean (soybean; [4]): 0 | Soybean plant response rating (soybean; [5]): 0 | Soybean plant response rating (soybean; [6]): 0 | Soybean plant response rating (soybean; [7]): 2 | Plant response rating, Rape (rape; [1]): 0 | Rape plant response rating (rape; [2]): 0 | Plant response rating, Rape (rape; [3]): 0 | Plant response rating, Rape (rape; [4]): 0 | Rape plant response rating (rape; [5]): 0 | Rape plant response rating (rape; [6]): 0 | Rape plant response rating (rape; [7]): 0 | Morningglory plant response rating (morningglory; [2]): 8 | Plant response rating, Morningglory (morningglory; [3]): 0 | Plant response rating, Morningglory (morningglory; [4]): 0 | Morningglory plant response rating (morningglory; [5]): 0 | Morningglory plant response rating (morningglory; [6]): 0 | Morningglory plant response rating (morningglory; [7]): 2 | Plant response rating, Velvetleaf (velvetleaf; [1]): 0 | Velvetleaf plant response rating (velvetleaf; [2]): 0 | Plant response rating, Velvetleaf (velvetleaf; [3]): 0 | Plant response rating, Velvetleaf (velvetleaf; [4]): 0 | Velvetleaf plant response rating (velvetleaf; [5]): 0 | Velvetleaf plant response rating (velvetleaf; [6]): 0 | Velvetleaf plant response rating (velvetleaf; [7]): 0 | Wild oats plant response rating (wild oat; [2]): 0 | Plant response rating, Wild oats (wild oat; [3]): 0 | Plant response rating, Wild oats (wild oat; [4]): 0 | Wild oats plant response rating (wild oat; [5]): 0 | Wild oats plant response rating (wild oat; [6]): 0 | Wild oats plant response rating (wild oat; [7]): 0 | Plant response rating, Blackgrass (blackgrass; [1]): 0 | Blackgrass plant response rating (blackgrass; [2]): 2 | Plant response rating, Blackgrass (blackgrass; [3]): 0 | Plant response rating, Blackgrass (blackgrass; [4]): 0 | Blackgrass plant response rating (blackgrass; [8]): 0 | Blackgrass plant response rating (blackgrass; [6]): 0 | Blackgrass plant response rating (blackgrass; [9]): 0 | Blackgrass plant response rating (blackgrass; [7]): 0 | Barnyardgrass plant response rating (bamyardgrass; [10]): 0 | Barnyardgrass plant response rating (bamyardgrass; [11]): 0 | Barnyardgrass plant response rating (bamyardgrass; [12]): 0 | Plant response rating, Barnyardgrass (bamyardgrass; [13]): 0 | Plant response rating, Corn (corn; [1]): 0 | Corn plant response rating (corn; [2]): 0 | Plant response rating, Corn (corn; [3]): 0 | Plant response rating, Corn (corn; [4]): 0 | Corn plant response rating (corn; [5]): 0 | Corn plant response rating (corn; [6]): 0 | Corn plant response rating (corn; [9]): 0 | Corn plant response rating (corn; [7]): 0 | Plant response rating, B. signalgrass (surinam grass; [1]): 0 | B. signalgrass plant response rating (surinam grass; [2]): 0 | Plant response rating, B. signalgrass (surinam grass; [3]): 0 | Plant response rating, B. signalgrass (surinam grass; [4]): 0 | B. signalgrass plant response rating (surinam grass; [8]): 0 | B. signalgrass plant response rating (surinam grass; Preemergence, Rate 500 g/ha, scale of 0 to 10 where 0 is no effect and 10 is complete control): 0 | B. signalgrass plant response rating (surinam grass; [9]): 0 | B. signalgrass plant response rating (surinam grass; [7]): 0 | Rice plant response rating (rice; [10]): 0 | Rice plant response rating (rice; [12]): 0 | Plant response rating, Rice (rice; [13]): 0 | Plant response rating, Giant foxtail (giant foxtail; [1]): 0 | Giant foxtail plant response rating (giant foxtail; [2]): 2 | Plant response rating, Giant foxtail (giant foxtail; [3]): 0 | Plant response rating, Giant foxtail (giant foxtail; [4]): 0 | Giant foxtail plant response rating (giant foxtail; [5]): 3 | Giant foxtail plant response rating (giant foxtail; [6]): 4 | Giant foxtail plant response rating (giant foxtail; [9]): 0 | Giant foxtail plant response rating (giant foxtail; [7]): 0 | Plant response rating, Cocklebur (cocklebur; [1]): 0 | Cocklebur plant response rating (cocklebur; [2]): 0 | Plant response rating, Cocklebur (cocklebur; [3]): 0 | Plant response rating, Cocklebur (cocklebur; [4]): 0 | Cocklebur plant response rating (cocklebur; [5]): 0 | Cocklebur plant response rating (cocklebur; [6]): 0 | Cocklebur plant response rating (cocklebur; [9]): 0 | Cocklebur plant response rating (cocklebur; [7]): 0 | Plant response rating, Nutsedge (purple nutsedge; [1]): 0 | Nutsedge plant response rating (purple nutsedge; [2]): 0 | Plant response rating, Nutsedge (purple nutsedge; [3]): 0 | Plant response rating, Nutsedge (purple nutsedge; [4]): 0 | Nutsedge plant response rating (purple nutsedge; [5]): 0 | Nutsedge plant response rating (purple nutsedge; [6]): 0 | Nutsedge plant response rating (purple nutsedge; [7]): 0 | Plant response rating, Redroot pigweed (pigweed; [1]): 0 | Redroot pigweed plant response rating (pigweed; [2]): 0 | Plant response rating, Redroot pigweed (pigweed; [3]): 0 | Plant response rating, Redroot pigweed (pigweed; [4]): 0 | Redroot pigweed plant response rating (pigweed; [5]): 0 | Redroot pigweed plant response rating (pigweed; [6]): 0 | Redroot pigweed plant response rating (pigweed; [7]): 0 | Ducksalad plant response rating (duck salad; [10]): 0 | Ducksalad plant response rating (duck salad; [11]): 0 | Ducksalad plant response rating (duck salad; [12]): 0 | Plant response rating, Ducksalad (duck salad; [13]): 0 | S. Flatsedge plant response rating (smallflower flatsedge; [10]): 0 | S. Flatsedge plant response rating (smallflower flatsedge; [12]): 0 | Plant response rating, S. Flatsedge (smallflower flatsedge; [13]): 0 | Wheat plant response rating (wheat; [2]): 0 | Plant response rating, Wheat (wheat; [3]): 0 | Plant response rating, Wheat (wheat; [4]): 0 | Wheat plant response rating (wheat; [5]): 0 | Wheat plant response rating (wheat; [6]): 0 | Wheat plant response rating (wheat; [7]): 0 | Plant response rating, Crabgrass (crabgrass; [1]): 0 | Crabgrass plant response rating (crabgrass; [2]): 1 | Plant response rating, Crabgrass (crabgrass; [3]): 0 | Plant response rating, Crabgrass (crabgrass; [4]): 0 | Crabgrass plant response rating (crabgrass; [6]): 2 | Crabgrass plant response rating (crabgrass; [9]): 0 | Crabgrass plant response rating (crabgrass; [7]): 0

CC(C)N(C(=O)n1oc(=O)n(C2CC=CCC2)c1=O)c1ccc(F)cc1 (stereo not shown) [Compound 793]
Barnyardgrass plant response rating (bamyardgrass; [14]): 0 | Barnyardgrass plant response rating (bamyardgrass; [15]): 0 | Barnyardgrass plant response rating (bamyardgrass; [16]): 0 | Rice plant response rating (rice; [14]): 0 | Rice plant response rating (rice; [15]): 0 | Rice plant response rating (rice; [16]): 0 | Ducksalad plant response rating (duck salad; [14]): 6 | Ducksalad plant response rating (duck salad; [15]): 7 | Ducksalad plant response rating (duck salad; [16]): 8 | S. Flatsedge plant response rating (smallflower flatsedge; [14]): 6 | S. Flatsedge plant response rating (smallflower flatsedge; [15]): 7 | S. Flatsedge plant response rating (smallflower flatsedge; [16]): 8
